Experimental data taken from paper PMC10938783, “A novel pan-PI3K inhibitor KTC1101 synergizes with anti-PD-1 therapy by targeting tumor suppression and immune activation” (Molecular Cancer, 2024).

Assays:
Experiment in all cases: JFCR39 sulforhodamine B growth assay
Assay type in all cases: cell-based
A549 = settings: Homo sapiens, A549, 48 h
Protocol: (§1) JFCR39 drug discovery system was used to measure the growth inhibitory activities and identify the target of KTC1101. The JFCR39 panel consists of 39 cell lines seeded in 96-well plates. After 48-h treatment with KTC1101, cell growth was measured using the sulforhodamine B assay. […] The deviation of log GI50 for each cell line from the average log GI50 across the JFCR39 panel was plotted as a fingerprint. MG-MID (mean of Log GI50 values) represents the average log GI50 for all 39 cell lines. The most sensitive and least sensitive cell lines were identified by calculating the difference in their log GI50 values (Range) and the difference between the most sensitive cell line and the average GI50 on the JFCR39 panel (Delta). The fingerprint of KTC1101 was compared with the fingerprints of reference compounds in the database. The Pearson correlation coefficient (r) was calculated (n = 39).

ACHN = settings: Homo sapiens, 48 h
Protocol: as §1

BSY-1 = settings: Homo sapiens, BSY-1, 48 h
Protocol: as §1

DMS114 = settings: Homo sapiens, DMS-114; DMS114, 48 h
Protocol: as §1

DMS273 = settings: Homo sapiens, DMS-273; DMS273, 48 h
Protocol: as §1

DU-145 = settings: Homo sapiens, DU-145, 48 h
Protocol: as §1

HBC-4 = settings: Homo sapiens, HBC4; HBC-4, 48 h
Protocol: as §1

HBC-5 = settings: Homo sapiens, HBC5; HBC-5, 48 h
Protocol: as §1

HCC2998 = settings: Homo sapiens, HCC 2998; HCC2998, 48 h
Protocol: as §1

HCT-116 = settings: Homo sapiens, HCT-116, 48 h
Protocol: as §1

HCT-15 = settings: Homo sapiens, HCT-15, 48 h
Protocol: as §1

HT-29 = settings: Homo sapiens, HT-29, 48 h
Protocol: as §1

KM-12 = settings: Homo sapiens, KM12; KM-12, 48 h
Protocol: as §1

LOX-IMVI = settings: Homo sapiens, 48 h
Protocol: as §1

MCF-7 = settings: Homo sapiens, MCF7; MCF-7, 48 h
Protocol: as §1

MDA-MB-231 = settings: Homo sapiens, MDA-MB-231, 48 h
Protocol: as §1

MKN-A = settings: Homo sapiens, 48 h
Protocol: as §1

MKN-B = settings: Homo sapiens, 48 h
Protocol: as §1

MKN1 = settings: Homo sapiens, MKN-1; MKN1, 48 h
Protocol: as §1

MKN45 = settings: Homo sapiens, MKN-45; MKN45, 48 h
Protocol: as §1

MKN74 = settings: Homo sapiens, MKN-74; MKN74, 48 h
Protocol: as §1

NCI-H226 = settings: Homo sapiens, NCI-H226, 48 h
Protocol: as §1

NCI-H23 = settings: Homo sapiens, NCI-H23, 48 h
Protocol: as §1

NCI-H460 = settings: Homo sapiens, NCI-H460, 48 h
Protocol: as §1

NCI-H522 = settings: Homo sapiens, NCI-H522, 48 h
Protocol: as §1

OVCAR-3 = settings: Homo sapiens, OVCAR-3, 48 h
Protocol: as §1

OVCAR-4 = settings: Homo sapiens, OVCAR-4, 48 h
Protocol: as §1

OVCAR-5 = settings: Homo sapiens, OVCAR-5, 48 h
Protocol: as §1

OVCAR-8 = settings: Homo sapiens, OVCAR-8, 48 h
Protocol: as §1

PC-3 = settings: Homo sapiens, PC-3, 48 h
Protocol: as §1

RXF-631L = settings: Homo sapiens, 48 h
Protocol: as §1

SF-268 = settings: Homo sapiens, SF-268, 48 h
Protocol: as §1

SF-295 = settings: Homo sapiens, SF-295, 48 h
Protocol: as §1

SF-539 = settings: Homo sapiens, SF-539, 48 h
Protocol: as §1

SK-OV-3 = settings: Homo sapiens, SK-OV-3, 48 h
Protocol: as §1

SNB-75 = settings: Homo sapiens, SNB-75, 48 h
Protocol: as §1

SNB-78 = settings: Homo sapiens, SNB-78, 48 h
Protocol: as §1

St-4 = settings: Homo sapiens, St-4, 48 h
Protocol: as §1

U251 = settings: Homo sapiens, U-251; U251, 48 h
Protocol: as §1

**Q.** `COc1cc(N)cc2c1nc(C(F)F)n2-c1nc(N2CCCOCC2)nc(N2CCOCC2)n1` [KTC1101, 2-(difluoromethyl)-4-methoxy-1-(4-morpholino-6-(1,4-oxazepan-4-yl)-1,3,5-triazin-2-yl)-1H-benzo[d]imidazol-6-amine] was tested. Which GI50 (A549) did it give?
**A.** Its GI50 is 21.9 nM.

**Q.** And the GI50 (ACHN)?
**A.** The GI50 was 21.4 nM.

**Q.** What about the GI50 (BSY-1) of the same compound?
**A.** The GI50 was 10 nM.

**Q.** What about the GI50 (DMS114) of the same compound?
**A.** Its GI50 is 10 nM.

**Q.** And the GI50 (DMS273)?
**A.** The GI50 was 11 nM.

**Q.** And the GI50 (DU-145)?
**A.** The GI50 was 23.4 nM.

**Q.** And the GI50 (HBC-4)?
**A.** Its GI50 is 24.5 nM.

**Q.** And the GI50 (HBC-5)?
**A.** Its GI50 is 14.5 nM.

**Q.** And the GI50 (HCC2998)?
**A.** The GI50 was 36.3 nM.

**Q.** What about the GI50 (HCT-116) of the same compound?
**A.** The GI50 was 31.6 nM.

**Q.** What about the GI50 (HCT-15) of the same compound?
**A.** Its GI50 is 17.8 nM.

**Q.** What about the GI50 (HT-29) of the same compound?
**A.** The GI50 was 61.7 nM.

**Q.** What about the GI50 (KM-12) of the same compound?
**A.** Its GI50 is 178 nM.

**Q.** And the GI50 (LOX-IMVI)?
**A.** Its GI50 is 17.4 nM.

**Q.** What about the GI50 (MCF-7) of the same compound?
**A.** The GI50 was 10 nM.

**Q.** And the GI50 (MDA-MB-231)?
**A.** Its GI50 is 30.2 nM.

**Q.** What about the GI50 (MKN-A) of the same compound?
**A.** Its GI50 is 145 nM.

**Q.** And the GI50 (MKN-B)?
**A.** Its GI50 is 28.8 nM.

**Q.** What about the GI50 (MKN1) of the same compound?
**A.** The GI50 was 10 nM.

**Q.** What about the GI50 (MKN45) of the same compound?
**A.** The GI50 was 162 nM.

**Q.** And the GI50 (MKN74)?
**A.** Its GI50 is 70.8 nM.

**Q.** And the GI50 (NCI-H226)?
**A.** Its GI50 is 16.6 nM.

**Q.** And the GI50 (NCI-H23)?
**A.** Its GI50 is 25.7 nM.

**Q.** What about the GI50 (NCI-H460) of the same compound?
**A.** The GI50 was 10 nM.

**Q.** What about the GI50 (NCI-H522) of the same compound?
**A.** Its GI50 is 10 nM.

**Q.** And the GI50 (OVCAR-3)?
**A.** The GI50 was 15.8 nM.

**Q.** And the GI50 (OVCAR-4)?
**A.** Its GI50 is 61.7 nM.

**Q.** And the GI50 (OVCAR-5)?
**A.** Its GI50 is 23.4 nM.

**Q.** And the GI50 (OVCAR-8)?
**A.** Its GI50 is 30.9 nM.

**Q.** And the GI50 (PC-3)?
**A.** The GI50 was 15.8 nM.

**Q.** And the GI50 (RXF-631L)?
**A.** The GI50 was 15.5 nM.

**Q.** And the GI50 (SF-268)?
**A.** The GI50 was 18.2 nM.

**Q.** And the GI50 (SF-295)?
**A.** Its GI50 is 14.8 nM.

**Q.** And the GI50 (SF-539)?
**A.** The GI50 was 10 nM.

**Q.** And the GI50 (SK-OV-3)?
**A.** The GI50 was 12.9 nM.

**Q.** What about the GI50 (SNB-75) of the same compound?
**A.** Its GI50 is 10 nM.

**Q.** What about the GI50 (SNB-78) of the same compound?
**A.** The GI50 was 22.9 nM.

**Q.** And the GI50 (St-4)?
**A.** Its GI50 is 105 nM.

**Q.** And the GI50 (U251)?
**A.** The GI50 was 38 nM.
